The assay addresses T1, human PAH with the R408W mutation (Homo sapiens, UniProt P00439, R408W).
T1 construct: expressed in transfected cells
T1 sequence (P00439 1-452 R408W): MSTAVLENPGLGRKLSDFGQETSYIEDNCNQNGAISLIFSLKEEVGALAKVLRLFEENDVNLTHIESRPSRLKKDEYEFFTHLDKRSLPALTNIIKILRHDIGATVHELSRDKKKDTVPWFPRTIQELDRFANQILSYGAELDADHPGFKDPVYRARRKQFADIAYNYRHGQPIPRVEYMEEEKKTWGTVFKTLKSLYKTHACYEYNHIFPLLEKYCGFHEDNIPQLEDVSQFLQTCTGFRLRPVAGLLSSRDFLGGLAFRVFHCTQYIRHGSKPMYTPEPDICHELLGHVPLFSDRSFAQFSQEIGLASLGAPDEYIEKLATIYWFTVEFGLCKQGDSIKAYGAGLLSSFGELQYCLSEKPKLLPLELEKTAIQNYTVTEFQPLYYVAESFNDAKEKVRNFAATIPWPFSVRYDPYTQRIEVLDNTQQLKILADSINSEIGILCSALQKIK
Briefly: Cell Based Phenylalanine Flux Assay.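 Also: after compound treatment, cells received sepiapterin plus isotope-labelled Phenylalanine for 4 hours, then labelled Tyrosine in the medium was quantified, 10-point 2-fold dilution series run in duplicate.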 The settings on record: 24 hrs compound incubation, 13C-Tyrosine by LC-MS, average where tested multiple times, read-out: AC50.

The mark [1] stands for this setting: A375 cells expressing human R408W PAH.
Where [2] appears, read: A375 cells expressing human PAH R408W.

The source of these data is US20230365592A1 (Agios Pharmaceuticals, Inc., priority 2022, published 2023).

One may read the AC50 as the concentration giving half of the maximal activity seen.

Molecules are shown by their SMILES. Read-outs that look alike come from different tables or passages of the source.

For the compound `Cc1cccc2cc([C@@H]3c4nc[nH]c4CCN3C(=O)c3cnn4cc(N(C)C)ccc34)nn12` [Example 1794, (S)-(6-(dimethylamino)pyrazolo[1,5-a]pyridin-3-yl)(4-(7-methylpyrazolo[1,5-a]pyridin-2-yl)-6,7-dihydro-1H-imidazo[4,5-c]pyridin-5(4H)-yl)methanone], the concentration at half-maximal activity (AC50) under setting [1] was 0.5 to 1 µM.

On to `Cc1cccc2cc([C@H]3c4nc[nH]c4CCN3C(=O)c3cnn4cc(N(C)C)ccc34)nn12` [Example 1795, (R)-(6-(dimethylamino)pyrazolo[1,5-a]pyridin-3-yl)(4-(7-methylpyrazolo[1,5-a]pyridin-2-yl)-6,7-dihydro-1H-imidazo[4,5-c]pyridin-5(4H)-yl)methanone], for which, under setting [1], the half-maximal activity concentration (AC50) was greater than 5 µM.

In the case of `COCCc1ccc2c(C(=O)N3CCc4[nH]cnc4[C@H]3c3cc4c(F)cccn4n3)cnn2c1` [Example 1796, (S)-(4-(4-fluoropyrazolo[1,5-a]pyridin-2-yl)-6,7-dihydro-1H-imidazo[4,5-c]pyridin-5(4H)-yl)(6-(2-methoxyethyl)pyrazolo[1,5-a]pyridin-3-yl)methanone], under setting [1], the half-maximal activity concentration (AC50) is 0.5 to 1 µM.

In the case of `Cc1cccn2nc([C@H]3c4nc[nH]c4CCN3c3nnc(C(C)(C)C)o3)cc12` [Example 1798, (R)-2-(tert-butyl)-5-(4-(4-methylpyrazolo[1,5-a]pyridin-2-yl)-6,7-dihydro-1H-imidazo[4,5-c]pyridin-5(4H)-yl)-1,3,4-oxadiazole], the AC50 under setting [1] was greater than 5 µM.

On to `Cc1cccn2nc([C@@H]3c4nc[nH]c4CCN3c3nnc(C(C)(C)C)o3)cc12` [Example 1799, (S)-2-(tert-butyl)-5-(4-(4-methylpyrazolo[1,5-a]pyridin-2-yl)-6,7-dihydro-1H-imidazo[4,5-c]pyridin-5(4H)-yl)-1,3,4-oxadiazole], for which, under setting [2], the AC50 was 0.5 to 1 µM.

Consider `FC(F)(F)c1cnc(N2CCc3[nH]cnc3[C@H]2c2cc3cccc(Cl)n3n2)nc1` [Example 1800, (S)-4-(7-chloropyrazolo[1,5-a]pyridin-2-yl)-5-(5-(trifluoromethyl)pyrimidin-2-yl)-4,5,6,7-tetrahydro-1H-imidazo[4,5-c]pyridine], for which the AC50 under setting [2] was less than 0.5 µM.

Turning to `Cc1cccc2cc([C@H]3c4nc[nH]c4CCN3c3ncc(C(F)(F)F)cn3)nn12` [Example 1803, (R)-4-(7-methylpyrazolo[1,5-a]pyridin-2-yl)-5-(5-(trifluoromethyl)pyrimidin-2-yl)-4,5,6,7-tetrahydro-1H-imidazo[4,5-c]pyridine], the AC50 under setting [2] was greater than 5 µM.

On to `Cc1cccn2nc([C@H]3c4nc[nH]c4CCN3c3cnccn3)cc12` [Example 1804, (R)-4-(4-methylpyrazolo[1,5-a]pyridin-2-yl)-5-(pyrazin-2-yl)-4,5,6,7-tetrahydro-1H-imidazo[4,5-c]pyridine], for which the AC50 under setting [2] fell in the range of 1 to 5 µM.

Turning to `Cc1cccn2nc([C@@H]3c4nc[nH]c4CCN3c3cnccn3)cc12` [Example 1805, (S)-4-(4-methylpyrazolo[1,5-a]pyridin-2-yl)-5-(pyrazin-2-yl)-4,5,6,7-tetrahydro-1H-imidazo[4,5-c]pyridine], the AC50 under setting [2] is less than 0.5 µM.

On to `FC(F)(F)c1nnc(N2CCc3[nH]cnc3[C@H]2c2cc3ccccn3n2)o1` [Example 1807, (S)-2-(4-(pyrazolo[1,5-a]pyridin-2-yl)-6,7-dihydro-1H-imidazo[4,5-c]pyridin-5(4H)-yl)-5-(trifluoromethyl)-1,3,4-oxadiazole], for which, under setting [2], the AC50 is 0.5 to 1 µM.

Regarding `Cc1cccn2nc([C@@H]3c4nc[nH]c4CCN3c3nnc(C(F)(F)F)o3)cc12` [Example 1809, (S)-2-(4-(4-methylpyrazolo[1,5-a]pyridin-2-yl)-6,7-dihydro-1H-imidazo[4,5-c]pyridin-5(4H)-yl)-5-(trifluoromethyl)-1,3,4-oxadiazole], the half-maximal activity concentration (AC50) under setting [2] is less than 0.5 µM.

In the case of `FC(F)(F)c1cnc(N2CCc3[nH]cnc3[C@H]2c2cc3cccc(C(F)(F)F)n3n2)nc1` [Example 1810, (S)-4-(7-(trifluoromethyl)pyrazolo[1,5-a]pyridin-2-yl)-5-(5-(trifluoromethyl)pyrimidin-2-yl)-4,5,6,7-tetrahydro-1H-imidazo[4,5-c]pyridine], the AC50 under setting [2] was in the range of 0.5 to 1 µM.

For `FC(F)c1cccc2cc([C@@H]3c4nc[nH]c4CCN3c3ncc(C(F)(F)F)cn3)nn12` [Example 1812, (S)-4-(7-(difluoromethyl)pyrazolo[1,5-a]pyridin-2-yl)-5-(5-(trifluoromethyl)pyrimidin-2-yl)-4,5,6,7-tetrahydro-1H-imidazo[4,5-c]pyridine], the AC50 under setting [2] fell in the range of 0.5 to 1 µM.

As for `c1ccc(N2CCc3[nH]cnc3[C@H]2c2cc3ccccn3n2)nc1` [Example 1814, (S)-4-(pyrazolo[1,5-a]pyridin-2-yl)-5-(pyridin-2-yl)-4,5,6,7-tetrahydro-1H-imidazo[4,5-c]pyridine], the AC50 under setting [2] is less than 0.5 µM.

For `c1ccc(N2CCc3[nH]cnc3[C@@H]2c2cc3ccccn3n2)nc1` [Example 1815, (R)-4-(pyrazolo[1,5-a]pyridin-2-yl)-5-(pyridin-2-yl)-4,5,6,7-tetrahydro-1H-imidazo[4,5-c]pyridine], the AC50 under setting [2] is greater than 5 µM.

For `FC(F)c1cccn2nc([C@H]3c4nc[nH]c4CCN3c3cnccn3)cc12` [Example 1816, (R)-4-(4-(difluoromethyl)pyrazolo[1,5-a]pyridin-2-yl)-5-(pyrazin-2-yl)-4,5,6,7-tetrahydro-1H-imidazo[4,5-c]pyridine], the AC50 under setting [2] was greater than 5 µM.

`FC(F)c1cccn2nc([C@@H]3c4nc[nH]c4CCN3c3cnccn3)cc12` [Example 1817, (S)-4-(4-(difluoromethyl)pyrazolo[1,5-a]pyridin-2-yl)-5-(pyrazin-2-yl)-4,5,6,7-tetrahydro-1H-imidazo[4,5-c]pyridine]: the AC50 under setting [2] was less than 0.5 µM.

With `FC(F)(F)c1cccn2nc([C@H]3c4nc[nH]c4CCN3c3cnccn3)cc12` [Example 1818, (R)-5-(pyrazin-2-yl)-4-(4-(trifluoromethyl)pyrazolo[1,5-a]pyridin-2-yl)-4,5,6,7-tetrahydro-1H-imidazo[4,5-c]pyridine], the AC50 under setting [2] was greater than 5 µM.

For `FC(F)(F)c1cccn2nc([C@@H]3c4nc[nH]c4CCN3c3cnccn3)cc12` [Example 1819, (S)-5-(pyrazin-2-yl)-4-(4-(trifluoromethyl)pyrazolo[1,5-a]pyridin-2-yl)-4,5,6,7-tetrahydro-1H-imidazo[4,5-c]pyridine], under setting [2], the AC50 is less than 0.5 µM.

For the compound `FC(F)(F)c1nnc(N2CCc3[nH]cnc3[C@@H]2c2cc3c(C(F)(F)F)cccn3n2)o1` [Example 1820, (R)-2-(trifluoromethyl)-5-(4-(4-(trifluoromethyl)pyrazolo[1,5-a]pyridin-2-yl)-6,7-dihydro-1H-imidazo[4,5-c]pyridin-5(4H)-yl)-1,3,4-oxadiazole], under setting [2], the AC50 was greater than 5 µM.

For the compound `FC(F)(F)c1nnc(N2CCc3[nH]cnc3[C@H]2c2cc3c(C(F)(F)F)cccn3n2)o1` [Example 1821, (S)-2-(trifluoromethyl)-5-(4-(4-(trifluoromethyl)pyrazolo[1,5-a]pyridin-2-yl)-6,7-dihydro-1H-imidazo[4,5-c]pyridin-5(4H)-yl)-1,3,4-oxadiazole], under setting [2], the AC50 is less than 0.5 µM.

Turning to `CC(C)(C)c1nnc(N2CCc3[nH]cnc3[C@H]2c2cc3c(C(F)F)cccn3n2)o1` [Example 1825, (S)-2-(tert-butyl)-5-(4-(4-(difluoromethyl)pyrazolo[1,5-a]pyridin-2-yl)-6,7-dihydro-1H-imidazo[4,5-c]pyridin-5(4H)-yl)-1,3,4-oxadiazole], the half-maximal activity concentration (AC50) under setting [2] fell in the range of 0.5 to 1 µM.

As for `Cc1cccn2nc([C@@H]3c4nc[nH]c4CCN3c3ncc(N)cn3)cc12` [Example 1827, (S)-2-(4-(4-methylpyrazolo[1,5-a]pyridin-2-yl)-6,7-dihydro-1H-imidazo[4,5-c]pyridin-5(4H)-yl)pyrimidin-5-amine], the AC50 under setting [2] was 0.5 to 1 µM.

`FC(F)c1cccn2nc([C@H]3c4nc[nH]c4CCN3c3cncc(Cl)n3)cc12` [Example 1828, (R)-5-(6-chloropyrazin-2-yl)-4-(4-(difluoromethyl)pyrazolo[1,5-a]pyridin-2-yl)-4,5,6,7-tetrahydro-1H-imidazo[4,5-c]pyridine]: the concentration at half-maximal activity (AC50) under setting [2] lay in the range of 1 to 5 µM.

For the compound `FC(F)c1cccn2nc([C@@H]3c4nc[nH]c4CCN3c3cncc(Cl)n3)cc12` [Example 1829, (S)-5-(6-chloropyrazin-2-yl)-4-(4-(difluoromethyl)pyrazolo[1,5-a]pyridin-2-yl)-4,5,6,7-tetrahydro-1H-imidazo[4,5-c]pyridine], the half-maximal activity concentration (AC50) under setting [2] is less than 0.5 µM.

For the compound `Clc1cccn2nc([C@H]3c4nc[nH]c4CCN3c3nnc(C4CCC4)o3)cc12` [Example 1830, (R)-2-(4-(4-chloropyrazolo[1,5-a]pyridin-2-yl)-6,7-dihydro-1H-imidazo[4,5-c]pyridin-5(4H)-yl)-5-cyclobutyl-1,3,4-oxadiazole], the AC50 under setting [2] was greater than 5 µM.

Turning to `Clc1cccn2nc([C@@H]3c4nc[nH]c4CCN3c3nnc(C4CCC4)o3)cc12` [Example 1831, (S)-2-(4-(4-chloropyrazolo[1,5-a]pyridin-2-yl)-6,7-dihydro-1H-imidazo[4,5-c]pyridin-5(4H)-yl)-5-cyclobutyl-1,3,4-oxadiazole], the AC50 under setting [2] was 0.5 to 1 µM.

Consider `CC(C)(C)c1nnc(N2CCc3[nH]cnc3[C@H]2c2cc3c(Cl)cccn3n2)o1` [Example 1833, (S)-2-(tert-butyl)-5-(4-(4-chloropyrazolo[1,5-a]pyridin-2-yl)-6,7-dihydro-1H-imidazo[4,5-c]pyridin-5(4H)-yl)-1,3,4-oxadiazole], for which, under setting [2], the AC50 was 0.5 to 1 µM.
